For one data set, the system named is stress ulcer. In words: WIS: Restraint and Water Immersion Stress-Induced Ulcer Inhibition Test. Format: in vivo, male Crj:SD or Slc:SD rats. The conditions noted are these: rat, 100 mg/kg oral, 7 h water immersion stress; read-out: ulcer formation inhibitory rate (WIS). The method, then: WIS: Restraint and Water Immersion Stress-Induced Ulcer Inhibition Test
The degree of inhibition of the stress ulcer formation is tested.
Male Crj:SD or Slc:SD rats (6 to 7-week-old) were fasted overnight, but allowed free access to water. Each group has 5 to 8 of these rats. The sample compound was dissolved or suspended in an aqueous solution of 0.3% sodium carboxymethylcellulose or 0.05% Tween 80 and then was orally administered (100 mg/10 ml/kg. To a control group, the vehicle was administered. 10 minutes later, the rats were placed in a stress cage and immersed to the level of xipfoid process in a water bath (21° C.) for 7 hours. At the end of the stress, the rats were sacrificed by inhalation of ether or carbon dioxide. Then, the stomach of each was removed, inflated by injecting 10 ml of 5% formalin neutral buffer solution, and immersed in 1% formalin neutral buffer solution for 30 minutes or more to be fixed. The stomach was incised along the greater curvature and then the length of each erosion in the glandular portion was determined under dissecting microscope. The sum of the length of erosions per stomach was defined as ulcer index (UI).
The effect obtained when 100 mg/kg of the sample compound had been administered was expressed as ulcer formation inhibitory rate (%) as follows:
ulcer formation inhibitory rate (%)=(1-(UI in sample group/UI in control group))×100

Data set [1] in a line: MTT: Cell Damaging and Protecting Effect Test. Type of data set: cell-based, male Japanese White rabbit. The conditions noted are these: rabbit, gastric mucosa cells, final concentration 10^-4 M, smaller value is better, read-out: cell damaging rate (MTT). An excerpt: MTT: Cell Damaging and Protecting Effect Test
It is confirmed that there is no toxicity in cell level. Those having a toxicity in cell level are inappropriate as an anti-ulcer drug.
A male Japanese White rabbit (2.5 to 3 kg) was anesthetized to death by Nembutal™ and, immediately thereafter, its stomach was removed. The greater curvature of the stomach was incised so as to remove the stomach contents therefrom. After the mucosal surface was washed with HBSS (Hanks' Balanced Salt Solution), the stomach in ice-cooled HBSS was transferred to a laboratory. Then, after the pyloric antrum was removed, the gastric corpus mucosa was separated by a spatula and then minced into 2 to 3 mm^3 pieces in BME (Basal Medium Eagle). Thereafer, these pieces were shaken at 120 to 130 cycles/minute for 15 minutes at 37° C. in BME 60 ml containing 280 U/ml of dispase and 30 to 50 U/ml of collagenase. Here, the concentration of collagenase was appropriately changed for each lot in view of the state of cells. The pieces were washed twice with EBSS (Earle's Balanced Salt Solution) containing 1 mM of EDTA and then shaken in MEM (Minimum Essential Medium) containing 1 mM of EDTA at 37° C. for 5 minutes. Subsequently, they were shaken in the dispase and collagenase having the same concentrations as those mentioned above for 15 minutes so as to remove the supernatant and then further shaken at 37° C. for 50 to 60 minutes at 120 to 130 cycles/minute. Then, after being washed twice with HBSS, Ham F12 containing 2% of Ultrocer G™ was used to attain the concentration of 1×10^6 cells/ml. Thus formed suspension was dispensed in each well of a 96-well plate by 200 μl. The plate was incubated in the atmosphere composed of 5% CO2 and 95% air at 37° C. for three days so as to attain a confluent state and then subjected to MTT assay.
The sample compound was dissolved in DMSO so as to attain a concentration of 10^-2 M and then diluted with HBSS containing 2% of Ultrocer G™ so as to attain a final concentration of 10^-4 M. To each group, which 8 wells were used for, 10 μl of MTT reagent was added immediately after 100 μl of the medium in each well was exchanged for same volume of the resulting solution of the sample compound. After being incubated in an atmosphere composed of 5% CO2 and 95% air at 37° C. for 4 hours, thus formed solution was centrifuged and then its supernatant was discarded. Subsequently, 100 μl of 100% ethanol was added to the residue so as to dissolve MTT formazan. Then, the absorbance (OD: 570 to 630) was measured by a microplate reader. This method utilizes a phenomenon in which MTT is changed to MTT formazan only by mitochondria of living cells so as to change color.
The cell damaging or cell protecting effect of the sample compound at the final concentration of 10^-4 M was expressed as cell damaging rate (%) as follows:
cell damaging rate (%)=(1-(absorbance in sample group/absorbance in control group))×100
Accordingly, the smaller value is better in the cell damaging rate.

The subject of data set [2] is isolated gastric fundic gland. The data set can be described thus: CAP: Acid Secretion Inhibition Test In Vitro ([14C]-aminopyrine uptake test). The settings on record: Oryctolagus cuniculus; final concentration 10^-5 M, histamine 10^-5 M; read-out: acid secretion inhibitory rate (CAP). Format: cell-based, male Japanese White rabbit. The method, then: CAP: Acid Secretion Inhibition Test In Vitro
The acid secretion inhibitory activity in a cell level is studied. It can also be used for studying the mechanism of the effect.
ii-a) Preparation of isolated gastric fundus gland suspension
First, an isolated gastric fundic gland sample was prepared. Namely, a male Japanese White rabbit (2.5 to 3 kg) was anesthetized to death with Nembutal™ and then the abdomen was incised. Immediately thereafter, the stomach was removed and, after its pyloric and cardiac antrum were severed, incised along its greater curvature into two sheets. The gastric contents adhering to the mucosal surface was washed out with ice-cooled PBS (-) and then carefully washed therein. The gastric wall was spread on a cork board with its mucosal surface facing up and the feed and mucus thereon were completely removed with sterile gauze. The mucosa was separated therefrom by a spatula and then collected in ice-cooled PBS (-). After being washed twice with PBS (-), the mucosa was minced into 2-3 mm^3 pieces by scissors. These pieces were further washed twice with a nutrient solution. The nutrient solution comprises 132.4 mM of NaCl, 5.4 mM of KCl, 5 mM of Na2 HPO4.12H2 O, 1 mM of NaH2 PO4.2H2,
1.2 mM of MgSO4, 1 mM of CaCl2, 25 mM of HEPES, 2 mg/ml of glucose, and 1 mg/ml of BSA.
Into 70 ml of the nutrient solution containing 1 mg/ml of collagenase, minced mucosal pieces were dispersed and intensely stirred in a conical flask with a stirrer at 37° C. for 40 to 60 minutes. During this period, 100% O2 was sprayed on the nutrient solution surface and the pH was appropriately measured such that it was immediately adjusted to pH 7.4, when the value was therebelow, with a base. The nutrient solution was added to the reaction solution so as to attain the total amount of about 200 ml. After being filtered through a mesh, the suspension was divisionally introduced into 50 ml centrifuge tubes and left for 15 minutes such that gastric fundic gland was deposited. The supernatant was repeatedly removed by an aspirator, dispersed in the nutrient solution, and then left such that the gastric fundic gland was washed three times. At this time, without using a pipette, the suspension was alternately introduced into two centrifuge tubes so as to effect dispersion. The number of cells was counted under microscope and adjusted to 1.6×10^6 cells/ml.
ii-b) [^14 C]-aminopyrine uptake test.
Then, [^14 C]-aminopyrine uptake test was performed. After an Eppendorf tube was weighed, 10 μl (final concentration: 10^-5 M) of histamine dissolved in the above-mentioned nutrient solution, 10 μl (final concentration: 10^-5 M) of the test compound dissolved in DMSO, and 10 μl (final concentration: 0.05 μCi/ml) of [^14 C]-aminopyrine diluted with the nutrient solution were introduced therein and then 970 μl of the isolated gastric fundic gland suspension prepared above was added thereto. Subsequently, this mixture was shaken at 37° C. for 40 minutes at 125 cycles/minute. After being centrifuged for 30 seconds, 200 μl of its supernatant was collected into a mini-vial, while the rest was removed by an aspirator. The gland pellet was completely dried as the tube with its lid being opened was kept for one night in a drying oven at 80° C. and then the lid was closed and the weight was determined at room temperature. Then 100 μl of 1N KOH was added thereto and the tube with its lid being closed was treated at 60° C. for 1 to 2 hours so as to dissolve the pellet. Then, the contents thereof were transferred to a mini-vial. Into the mini-vial containing the supernatant or gland pellet, 4 ml of Atomlite™ was added and then the radioactivity was measured by a liquid scintillation counter. Here, after the radioactivity of the gland pellet was corrected by using a sample in which 20 mM of NaSCN was added so as to cancel the hydrogen ion concentration gradient, the integration ratio of aminopyrine specifically trapped by the gland pellet was calculated. […]

`CCN1CCCC1CNC(=O)c1ccc(OC/C=C(\C)CCC=C(C)C)cc1` (stereo not shown) [Example 1, 1-ethyl-2-(4-geranyloxybenzoylaminomethyl)pyrrolidine]: the inhibition in vivo at 100 mg/kg in the data set on stress ulcer worked out at 80%.

Consider `CCN1CCCC1CNC(=O)c1ccccc1OC/C=C(\C)CCC=C(C)C` (stereo not shown) [Example 2, 1-ethyl-2-(2-geranyloxybenzoylaminomethyl)pyrrolidine], for which the inhibition in vivo at 100 mg/kg in the data set with stress ulcer worked out at 85%. Further, the cytotoxicity at 4 h, 100 µM in data set [1] was found to be 19%. Further, the inhibition at 10 µM in data set [2] is 99.7%.

On to `CCN1CCCC1CNC(=O)c1ccc(OCC=C(C)C)cc1` (stereo not shown) [Example 3, 1-ethyl-2-(4-prenyloxybenzoylaminomethyl)pyrrolidine], for which, in the data set with stress ulcer, the inhibition in vivo at 100 mg/kg was determined as 86%. Further, the cytotoxicity at 4 h, 100 µM in data set [1] was -14%. The inhibition at 10 µM in data set [2] turned out to be 61%.

Take `CCN1CCCC1CNC(=O)c1ccc(OCC=C(C)C)cc1OCC=C(C)C` (stereo not shown) [Example 5, 1-ethyl-2-(2,4-diprenyloxybenzoylaminomethyl)pyrrolidine]: in the data set with stress ulcer, the inhibition in vivo at 100 mg/kg is 70%. For the same compound, the cytotoxicity at 4 h, 100 µM in data set [1] stood at 9%. Moreover, the inhibition at 10 µM in data set [2] turned out to be 100%.

As to `CCN1CCCC1CNC(=O)c1ccc(OC/C=C(\C)CCC=C(C)C)cc1OC/C=C(\C)CCC=C(C)C` (stereo not shown) [Example 9, 1-ethyl-2-(2,4-digeranyloxybenzoylaminomethyl)pyrrolidine], the inhibition in vivo at 100 mg/kg with stress ulcer worked out at 66%.

Turning to `CCN1CCCC1CNC(=O)c1ccc(OC/C=C(\C)CCC=C(C)C)c(OC/C=C(\C)CCC=C(C)C)c1` (stereo not shown) [Example 11, 1-ethyl-2-(3,4-digeranyloxybenzoylaminomethyl)pyrrolidine], the inhibition in vivo at 100 mg/kg with stress ulcer was 75%.

As to `CCN1CCCC1CNC(=O)c1cc(OCC=C(C)C)c(OCC=C(C)C)c(OCC=C(C)C)c1` (stereo not shown) [Example 13, 1-ethyl-2-(3,4,5-triprenyloxybenzoylaminomethyl)pyrrolidine], in the data set with stress ulcer, the inhibition in vivo at 100 mg/kg worked out at 57%.

`CCN1CCCC1CNC(=O)c1ccc(OC)c(OC/C=C(\C)CCC=C(C)C)c1` (stereo not shown) [Example 15, 1-ethyl-2-(3-geranyloxy-4-methoxybenzoylaminomethyl)pyrrolidine]: the inhibition in vivo at 100 mg/kg in the data set on stress ulcer was found to be 91%. Also, the cytotoxicity at 4 h, 100 µM in data set [1] stood at 2%.

For the compound `CCN1CCCC1CNC(=O)c1ccc(OC)cc1OC/C=C(\C)CCC=C(C)C` (stereo not shown) [Example 18, 1-ethyl-2-(2-geranyloxy-4-methoxybenzoylaminomethyl)pyrrolidine], the inhibition in vivo at 100 mg/kg in the data set with stress ulcer was found to be 76%. Further, the cytotoxicity at 4 h, 100 µM in data set [1] amounted to 4%.

With `CCN1CCCC1CNC(=O)c1cc(OC)ccc1OC/C=C(\C)CCC=C(C)C` (stereo not shown) [Example 19, 1-ethyl-2-(2-geranyloxy-5-methoxybenzoylaminomethyl)pyrrolidine], in the data set with stress ulcer, the inhibition in vivo at 100 mg/kg is 89%. Moreover, in data set [1], the cytotoxicity at 4 h, 100 µM was 21%.

For the compound `CCN1CCCC1CNC(=O)c1cc(F)ccc1OC/C=C(\C)CCC=C(C)C` (stereo not shown) [Example 20, 1-ethyl-2-(3-fluoro-6-geranyloxybenzoylaminomethyl)pyrrolidine], the inhibition in vivo at 100 mg/kg in the data set with stress ulcer stood at 89%. Besides, in data set [1], the cytotoxicity at 4 h, 100 µM was determined as 23%.

With `CCN1CCCC1CNC(=O)c1cc(OC)c(OC/C=C(\C)CCC=C(C)C)c(OC)c1` (stereo not shown) [Example 21, 1-ethyl-2-(3,5-dimethoxy-4-geranyloxybenzoylaminomethyl)pyrrolidine], in the data set with stress ulcer, the inhibition in vivo at 100 mg/kg was 76%.

Regarding `CCN1CCCC1CNC(=O)c1cc(OC)c(OC)c(OC/C=C(\C)CCC=C(C)C)c1` (stereo not shown) [Example 22, 1-ethyl-2-(3,4-dimethoxy-5-geranyloxybenzoylaminomethyl)pyrrolidine], the inhibition in vivo at 100 mg/kg in the data set on stress ulcer came out at 80%.

Take `CCN1CCCC1CNC(=O)c1cc(OC)c(OCC=C(C)C)c(OC)c1` (stereo not shown) [Example 24, 1-ethyl-2-(3,5-dimethoxy-4-prenyloxybenzoylaminomethyl)pyrrolidine]: in the data set with stress ulcer, the inhibition in vivo at 100 mg/kg worked out at 79%. The cytotoxicity at 4 h, 100 µM in data set [1] amounted to 12%.

On to `CCN1CCCC1CNC(=O)c1cccnc1OCC=C(C)C` (stereo not shown) [Example 25, 1-ethyl-2-(2-prenyloxynicotinoylaminomethyl)pyrrolidine], for which, in the data set with stress ulcer, the inhibition in vivo at 100 mg/kg worked out at 90%. The cytotoxicity at 4 h, 100 µM in data set [1] was -15%.

Regarding `CCN1CCCC1CNC(=O)c1ccc(OCC=C(C)C)nc1` (stereo not shown) [Example 26, 1-ethyl-2-(6-prenyloxynicotinoylaminomethyl)pyrrolidine], in the data set with stress ulcer, the inhibition in vivo at 100 mg/kg was found to be 48%. Besides, the cytotoxicity at 4 h, 100 µM in data set [1] is -8%.

Take `CCN1CCCC1CNC(=O)c1ccc(OC/C=C(\C)CCC=C(C)C)nc1` (stereo not shown) [Example 27, 1-ethyl-2-(6-gearnyloxynicotinoylaminomethyl)pyrrolidine]: the inhibition in vivo at 100 mg/kg in the data set with stress ulcer was 88%. For the same compound, in data set [2], the inhibition at 10 µM was found to be 81%.

(Values after US5925667A, “Pyrrolidine derivative, anti-ulcer drug, and antibacterial drug” (Shiseido Co., Ltd., priority 1997, dated 1999).)
